The values that follow come from patent US5206220A (Research Corporation Technologies, Inc., priority 1991, dated 1993).

Values after ≈ are worked out from the molar mass of the structure shown. Values joined by “and” are separate entries in the source; they are usually repeats but may differ in a detail not shown here. Equal entries are not always repeated. Where two headings read alike, the source gives them in different places. Peptide text beside a SMILES is read from it.

The conditions of data set [1]: rats, after 24 h, cited from earlier work.
For data set [2] the following is noted: storage in aqueous solution, diketopiperazine formation; cited from earlier work.
A further data set relates to cells. The settings on record: cited from earlier work.
Data set [3] in a line: Stability of γ-GluTyr in a TPN amino acid solution. The settings on record: equal volumes 1.8 mM γ-GluTyr and Aminosyn-PF 10%, pH 5.5, ultrafiltered, room temperature, nine-month period, HPLC. Type of data set: physicochemical. The method, then: B. In a TPN amino acid solution: Equal volumes of 1.8 mM γ-GluTyr and Aminosyn-PF 10% (Abbott Laboratories) were mixed and the pH was adjusted to 5.5. The mixture thus contained similar concentrations of the peptide and of several amino acids, including phenylalanine and histidine. A sample was taken for analysis, and the remainder of the solution was sterilized by ultrafiltration and stored at room temperature (typical storage conditions for TPN amino acid solutions). Samples for analysis were also taken at intervals over a nine-month period. All samples were analyzed by HPLC as described above.

The nature of data set [4]: Distribution of γ-GluTyr in urine and plasma. Type of data set: in vivo, mice. As to the method: Urine was collected from mice injected with γ-GluTyr to determine whether or not the peptide was excreted into the urine. Mice were anesthetized with pentobarbital and then injected with 20 μl 140 mM γ-GluTyr (2.8 μmol). No urine was voided during the 60-min experiment, during which time the mice remained anesthetized. At the end of the experiment, the urinary bladders were tied off, removed and blood was collected from the heart for analysis. At the end of 60 min, a maximum of 0.13% of the injected γ-GluTyr was excreted in the urine whereas the plasma contained 12-25 μM γ-GluTyr. If these mice are assumed to have a total plasma volume of 4 ml, then only about 4% of the injected γ-GluTyr remained in the plasma at 60 min post-injection.

In a further data set the target is T1, γ-GTase (Mus musculus, UniProt Q60928).
T1 construct: from tissue; host or cells: live mice (whole animal; kidney named as a site of high activity)
T1 sequence (Q60928 1-379 limits assumed): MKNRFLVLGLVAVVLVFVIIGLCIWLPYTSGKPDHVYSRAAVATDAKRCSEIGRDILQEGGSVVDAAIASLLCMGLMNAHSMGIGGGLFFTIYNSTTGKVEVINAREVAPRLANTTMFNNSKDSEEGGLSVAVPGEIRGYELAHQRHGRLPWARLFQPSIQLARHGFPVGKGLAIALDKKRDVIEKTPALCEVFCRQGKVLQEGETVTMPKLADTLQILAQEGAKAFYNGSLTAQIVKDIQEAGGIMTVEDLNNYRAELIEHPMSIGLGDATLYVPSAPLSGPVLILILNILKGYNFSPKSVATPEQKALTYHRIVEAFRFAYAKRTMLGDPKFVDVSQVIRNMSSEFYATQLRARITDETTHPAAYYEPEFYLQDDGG
T1 sequence (Q60928 380-568 limits assumed): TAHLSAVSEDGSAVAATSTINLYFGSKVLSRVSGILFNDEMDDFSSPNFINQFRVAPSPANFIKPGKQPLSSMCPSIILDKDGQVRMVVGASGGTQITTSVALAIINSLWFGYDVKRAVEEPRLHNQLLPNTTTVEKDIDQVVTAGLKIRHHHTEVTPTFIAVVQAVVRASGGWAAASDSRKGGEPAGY
As to the kind of experiment: Effects of inhibiting γ-GTase with acivicin in mice injected with γ-GluTyr. Type of data set: in vivo. Conditions: for Tyr (plasma) / Phe (plasma) / γ-GluTyr (plasma): 2.8 μmol γ-GluTyr i.v., 10 min postinjection; for γ-GluTyr excreted: lost in the urine at 60 min postinjection. As to the method: To test the role of γ-GTase in degradation of γ-GluTyr in vivo an additional experiment was conducted. […] Control mice received saline rather than acivicin prior to intravenous injection of 2.8 μmol of γ-GluTyr. In test mice, an intraperitoneal injection of acivicin was made 90 min prior to the injection of 2.8 μmol γ-GluTyr. Plasma was sampled after 10 min and 60 min, and urine was collected after 60 min.
The kidney is generally unable to prevent the loss of intact peptides in the urine. Instead, peptides are hydrolyzed to free amino acids, which can then be salvaged by absorption into the bloodstream. […] When γ-GTase is inhibited by acivicin, unhydrolyzed peptide should be lost in the urine. The data in Table 5 are consistent with a role for γ-GTase in the hydrolysis of γ-GluTyr to prevent its excretion in the urine. When this enzyme is inhibited by acivicin, the amount of unhydrolyzed peptide which appears in the urine in 60 min increases markedly over peptide found in the urine of control mice.

Data set [5] in a line: Clearance of γ-GluTyr from plasma after i.v. injection. Type of data set: in vivo, mice. The method, then: Injections of 20 μl of 140 mM γ-GluTyr (2.8 μmol) were made in the external jugular vein of 30-40 g mice. The amount of γ-GluTyr was measured in the plasma at 10 min and 60 min post-injection in each animal.
In data set [6] the target is T2, bovine kidney γ-GTase (Sigma Type II) (Bos taurus, UniProt G3N2D8).
T2 construct: the solution treated with bovine kidney γ-GTase (Sigma Type II) at pH 7.4; purchased Sigma Type II; host or cells: bovine kidney (tissue-derived)
T2 sequence (G3N2D8 1-379 limits assumed): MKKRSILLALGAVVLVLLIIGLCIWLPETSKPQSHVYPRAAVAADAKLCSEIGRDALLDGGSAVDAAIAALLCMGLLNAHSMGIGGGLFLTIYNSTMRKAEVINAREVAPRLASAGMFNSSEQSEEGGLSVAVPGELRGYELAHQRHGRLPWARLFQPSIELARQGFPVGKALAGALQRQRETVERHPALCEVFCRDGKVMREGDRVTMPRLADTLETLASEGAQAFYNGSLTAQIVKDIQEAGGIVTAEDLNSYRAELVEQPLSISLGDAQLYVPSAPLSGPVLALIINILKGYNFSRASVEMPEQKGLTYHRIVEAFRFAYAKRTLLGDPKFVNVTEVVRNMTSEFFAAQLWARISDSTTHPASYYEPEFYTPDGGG
T2 sequence (G3N2D8 380-568 limits assumed): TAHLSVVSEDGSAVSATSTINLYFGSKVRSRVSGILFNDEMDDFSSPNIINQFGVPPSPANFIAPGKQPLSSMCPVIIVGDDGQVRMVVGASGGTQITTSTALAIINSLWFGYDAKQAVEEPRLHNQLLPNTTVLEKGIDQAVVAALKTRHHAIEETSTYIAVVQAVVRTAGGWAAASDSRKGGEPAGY
As to the kind of experiment: In vitro release of tyrosine from γ-GluTyr by γ-glutamyl transpeptidase. The data set is classed as biochemical. The settings on record: γ-GluTyr in Aminosyn-PF 10%, pH 7.4, monitored by HPLC. The method, then:
The most likely route for metabolic degradation of γ-GluTyr involves the enzyme, γ-glutamyl transpeptidase (γ-GTase), a widely distributed enzyme in mammalian tissues. In an in vitro test of this hypothesis, γ-GluTyr was added to Aminosyn-PF 10% and the solution treated with bovine kidney γ-GTase (Sigma Type II) at pH 7.4.

The conditions of data set [7]: cited from earlier work.
The conditions of data set [8]: rats, 0.5 mmol/kg; same value at longer times; cited from earlier work.
The conditions of data set [9]: administered for TPN; cited from earlier work.
The conditions of data set [10]: cited from earlier work. This is another data set of the same source.
Data set [11] in a line: γ-GluGln stability in Aminosyn-PF 10%. The data set is classed as physicochemical. Conditions: sterile, room temperature, one month, 4.5 and 9 months. The method, then: (§1) Sci. 18:233-236] or accomplished by standard amino acid analysis techniques.
To determine the stability of γ-GluGln under typical storage conditions, γ-GluGln was added to Aminosyn-PF 10% under sterile conditions and left at room temperature.

The nature of data set [12]: Clearance of γ-GluGln from plasma, release of plasma glutamine. Type of data set: in vivo, mice. Conditions: for Glutamine Concentration (plasma), individual mice / Glutamine Concentration (plasma), Mean + Standard Error: 29 μmoles γ-GluGln i.v.; for Glutamine Concentration (plasma), Mean + Standard Error: N = 6. The method, then: as §1
Mice were injected with 29 μmoles of γ-GluGln via the external jugular vein. Control animals were injected with an equal volume of saline. Blood was sampled at 10 min. and at 60 min after injection.

For data set [13] the following is noted: cited from earlier work. This is another data set of the same source.
The mark [14] stands for this setting: mice, 20 μL 140 mM γ-GluTyr, 10 min postinjection.

Consider `C[C@H](N)C(=O)N[C@@H](Cc1ccc(O)cc1)C(=O)O` [AlaTyr, L-alanyl-L-tyrosine] (H-Ala-Tyr-OH), for which the plasma tyrosine levels result is on record as “unchanged” in data set [1] (0.5 mmol/kg/day) and “increased two-fold” in [1] (2 mmol/kg/day). Besides, in [2], the “stability in aqueous solution” value is “unstable in aqueous solution”.

In the case of `NC(CCC(=O)NC(CSSCC(N)C(=O)O)C(=O)O)C(=O)O` [γ-Glu(Cys)2, γ-L-glutamyl-L-cystine], in the data set on cells, the transport into cells entry is “are transported”.

For the compound `N[C@@H](CCC(=O)N[C@@H](CSSC[C@H](NC(=O)CC[C@H](N)C(=O)O)C(=O)O)C(=O)O)C(=O)O` [(γ-GluCys)2, N,N'-bis(γ-glutamyl)cystine], the transport into cells result in the data set on cells was “are transported”.

Take `N[C@@H](CCC(=O)N[C@@H](CS)C(=O)NCC(=O)O)C(=O)O` [GSH, gamma-glutamyl-cysteinylglycine, reference compound]: in the data set with cells, the transport into cells entry was “does not appear to be transported into cells”.

On to `N[C@@H](CCC(=O)N[C@@H](Cc1ccc(O)cc1)C(=O)O)C(=O)O` [γ-GluTyr, gamma-L-glutamyl-L-tyrosine], for which the “levels of γ-GluTyr and tyrosine during storage” value in data set [3] is reported as “unchanged”. For the same compound, the “peptide hydrolyzed and available as free tyrosine and glutamic acid” value in data set [4] (60 min post-injection) is reported as “at least 96%”. In data set [4] (60 min post-injection, assumed total plasma volume of 4 ml), the “injected γ-GluTyr remaining in the plasma” value is “about 4%”. Besides, the “plasma γ-GluTyr” value in data set [4] (anesthetized mice, 2.8 μmol i.v., 60 min) lay within 12 to 25 µM. Moreover, in data set [4] (anesthetized mice, 2.8 μmol i.v., at the end of 60 min), the “injected γ-GluTyr excreted in the urine” value is listed as no more than 0.13%. Further, the “partitioning into red blood cells” value in data set [4] (previous studies) is recorded as “not partitioned into red blood cells”. For the same compound, the “Tyr (plasma)” value on γ-GTase (acivicin + (2 mg/30 g mouse i.p. 90 min before)) was 96 ± 1 µM. In addition, at γ-GTase (acivicin +), the “Phe (plasma)” value was found to be 96 ± 6 µM, the “γ-GluTyr (plasma)” value was 247 ± 17 µM and the γ-GluTyr excreted is 16-48 % of total. Moreover, on γ-GTase (acivicin - (saline)), the “Tyr (plasma)” value was determined as 126 ± 14 µM. Besides, on γ-GTase (acivicin -), the “Phe (plasma)” value was 89 ± 8 µM, the “γ-GluTyr (plasma)” value came out at 112 ± 15 µM and the γ-GluTyr excreted was 0.05-0.19 % of total. The “clearance of γ-GluTyr from plasma” value in data set [5] (mice 30-40 g, 20 μl of 140 mM (2.8 μmol) external jugular vein, 10 min to 60 min post-injection) is 2.2 to 2.6 µM/min. In addition, in [5] (setting [14]), the “Plasma Phe” value is 89 ± 8 µM and the “Plasma Tyr” value came out at 126 ± 14 µM. In addition, in [5] (mice, 40 μl of 140 mM γ-GluTyr, between 5 and 10 min post-injection), the “increase of plasma concentration of tyrosine” value is recorded as 32%. The “fall of plasma concentration of tyrosine” value in [5] (mice, 40 μl of 140 mM γ-GluTyr, between 10 and 60 min post-injection) amounted to 32%. The “clearance rate of γ-GluTyr from plasma” value in [5] (mice, 40 μl of 140 mM, external jugular vein) is 6.8 µM/min. Moreover, the “release of tyrosine from γ-GluTyr by the enzyme” value in data set [6] was “released tyrosine”.

As to `NCC(=O)N[C@@H](CCC(N)=O)C(=O)O` [GlyGln, glycylglutamine] (H-Gly-Gln-OH), the “stability in aqueous solution” value in data set [2] is “unstable during prolonged storage in aqueous solution”.

With `C[C@H](N)C(=O)N[C@@H](CCC(N)=O)C(=O)O` [AlaGln, alanylglutamine] (H-Ala-Gln-OH), in [2], the “stability in aqueous solution” value is listed as “unstable during prolonged storage in aqueous solution”.

For the compound `N[C@@H](CSSC[C@H](N)C(=O)O)C(=O)O` [Cystine], the solubility in water in data set [7] was 10 µg/mL (≈ 41.6 µM).

As to `NCC(=O)N[C@@H](Cc1ccc(O)cc1)C(=O)O` [GlyTyr, L-glycyl-L-tyrosine] (H-Gly-Tyr-OH), the “stability in aqueous solution” value in data set [2] is listed as “unstable during storage in aqueous solution”. Besides, the “rise of plasma tyrosine levels compared with AlaTyr” value in [8] is on record as “did not increase as rapidly”.

As to `CC(=O)N[C@@H](CSSC[C@H](NC(C)=O)C(=O)O)C(=O)O` [N,N'-bis-acetylcystine], the urinary losses result in [9] is recorded as “large urinary losses”.

In the case of `Cl.N[C@@H](CS)C(=O)O` [Cysteine-HCl, Cysteine-hydrochloride], in [10] (infants on TPN supplemented with L-cysteine-HCL), the “plasma ratio of cysteine to methionine (Cys/Met)” value is on record as 0.6. Moreover, the “adverse effect in TPN” value in data set [10] (some treated low-birth-weight infants) is reported as “implicated in the production of acidosis”.

`NC(=O)CC[C@H](NC(=O)CC[C@H](N)C(=O)O)C(=O)O` [γ-GluGln, gamma-L-glutamyl-L-glutamine]: the “stability of γ-GluGln under typical storage conditions” value in data set [11] is on record as “remained stable”. Moreover, the “Glutamine Concentration (plasma), individual mice” value was 675 µM and 762 µM and 614 µM and 693 µM and 681 µM and 770 µM in data set [12] (10 min); 565 µM and 586 µM and 457 µM and 198 µM and 555 µM and 629 µM in [12] (60 min). Besides, the “Glutamine Concentration (plasma), Mean + Standard Error” value in data set [12] (10 min) stood at 699 ± 24 µM; in data set [12] (60 min), 498 ± 64 µM. In data set [12] (29 μmoles γ-GluGln via external jugular vein, 10 min), the “mice with γ-GluGln detected in the plasma” value was “three of six”. Also, in data set [12] (mice not pretreated with acivicin), the “appearance of γ-GluGln in the urine” value is listed as “did not appear in the urine”.

As to `CC(=O)N[C@@H](CS)C(=O)O` [NAcCys, N-acetylcysteine], the “NAcCys levels (plasma)” value in data set [13] (four hours after administration (from 2)) is 488 µmol/L. For the same compound, the “plasma levels of cysteine” value in data set [13] (four hours after administration of 5 g cysteine in a 200 mg/ml solution as NAcCys (basal 207)) is 134 µM. Besides, the “administered NAcCys excreted in the urine” value in data set [13] (within 4 h) is recorded as 11%.
